Patent US11008336B2, “Compounds useful for inhibiting RORγt” (Eli Lilly and Company, priority 2017, dated 2021)

Key:
[1] = target: human RAR-related orphan receptor gamma (hRORγ) (Homo sapiens (Human), UniProt P51449); assay: RORγ receptor-ligand competition binding assay; settings: His-tagged hRORγ, [3H]-25-hydroxycholesterol; mean ± standard deviation; read-out: RORg Ki
Experimental: (§1) His-tagged human RAR-related orphan receptor alpha (hRORα), human RAR-related orphan receptor beta (hRORβ), and human RAR-related orphan receptor gamma (hRORγ) are used for receptor-ligand competition binding assays to determine Ki values. Typical procedures are provided below.
(§2) The final wells contain 20 μg/mL aprotinin and 20 μg/mL leupeptin and 10 μM Pefabloc. Typically, receptor binding assays include radio-labeled ligands, such as 7 nM [^3H]-25-hydroxycholesterol for alpha binding, 20 nM [^3H]-3-[[4-[[3-(2,6-dichlorophenyl)-5-isopropyl-isoxazol-4-yl]methoxy]-N,2-dimethyl-anilino]methyl]benzoic acid for beta binding, and 6 nM [3H]-25-hydroxycholesterol for gamma binding, and 0.5 μg RORα receptor, 0.03 μg RORβ receptor, or 0.13 μg RORγ receptor per well. Assays are typically run in 96-well format. […] Plates are mixed for 30 minutes on an orbital shaker at room temperature. After an incubation of 4 hours, plates are read in a Wallac MICROBETA® counter.
(§3) The data are used to calculate an estimated IC50 using a four parameter logistic fit. The Kd for [^3H]-25-hydroxycholesterol for RORa and RORg, and [^3H]-3-[[4-[[3-(2,6-dichlorophenyl)-5-isopropyl-isoxazol-4-yl]methoxy]-N,2-dimethyl-anilino]methyl]benzoic acid for RORb binding, is determined by saturation binding. The IC50 values for compounds are converted to Ki using the Cheng-Prushoff equation.

[2] = tested on: PBMC; assay: cells; type: cell-based; settings: Homo sapiens, 48 h, read-out: Cell TiterGlo Viability (EC50, μM)
Experimental: PBMC's are isolated from whole blood buffy coats by first combining fresh buffy coats with equal volumes of phosphate buffered saline. Thirty five mL of PBS/buffy coat solution are then gently overlaid onto 15 mL of Ficoll in 50 mL conical tubes. Following centrifugation for 30 minutes at 500×g (with slow acceleration and deceleration) the top layer of plasma is discarded and the layer of cells along the Ficoll interface is collected and pooled. […] Tubes are spun for 10 minutes at 500×G (with slow acceleration and deceleration), the media is removed by aspiration, and the wash step is repeated.
Cells are spun down for 5 minutes and the cell pellet is resuspended in complete media. Clumps of cells are broken up by running the cell solution through a 23 gauge syringe needle and a 40 μM cell strainer.
Equal volumes of Cell TITERGLO® cell viability testing reagent (Promega Cat #G7573) are added to the cells remaining in the plates, and following a fifteen minute incubation with gentle shaking at room temperature luminescence is measured with the Envision multi-label plate reader. Percent cell death is calculated by setting 100% activity (cell death) to zero luminescence units and minimum activity (max number of viable cells) as the average luminescence units of wells containing stimulants alone and no added compound. IC50's are calculated using a standard four parameter fit.

[3] = target: human RORg ligand binding domain fused to yeast GAL4 DNA binding domain (Homo sapiens (Human), UniProt P51449); assay: HEK293 RORg GAL4 receptor-reporter assay; type: cell-based; settings: HEK293 cells, RORg-GAL4/pGL4.31 luciferase, 18 hours; mean ± standard deviation; read-out: hIC50
[4] = tested on: anti-CD3/anti-CD28/IL-23 stimulated IL-17 secretion in PBMC's; assay: PBMC IL-17 secretion ELISA; type: cell-based; settings: Homo sapiens, anti-CD3/anti-CD28/IL-23 stimulation, 48 hours, mean ± standard deviation, read-out: hPBMC IL-17 ELISA (EC50)
Experimental: PBMC's are isolated from whole blood buffy coats by first combining fresh buffy coats with equal volumes of phosphate buffered saline. Thirty five mL of PBS/buffy coat solution are then gently overlaid onto 15 mL of Ficoll in 50 mL conical tubes. Following centrifugation for 30 minutes at 500×g (with slow acceleration and deceleration) the top layer of plasma is discarded and the layer of cells along the Ficoll interface is collected and pooled. Each 250 mL tube is filled to the top with room temperature RPMI-1640 media. Tubes are spun for 10 minutes at 500×G (with slow acceleration and deceleration), the media is removed by aspiration, and the wash step is repeated. Cells are resuspended in ice cold Recovery Cell Culture Freezing Medium from Life Technologies (Catalog number 12648-010) on ice. The cell concentration is adjusted to 66.7 million cells/mL. Cell are slow frozen at −1° C./minute in vials with 100 million cells and stored in liquid nitrogen.
PBMC are brought out of thaw by resuspending with 1 mL of complete media (RPMI-1640 containing 30 mM HEPES, 100 units/mL penicillin, 100 μg/mL streptomycin, 3.25 mM L-Glutamine, 0.2 μM beta-mercaptoethanol, and 10% FBS) followed by the drop wise addition of 2 mL, 4 mL, 8 mL, and 16 mL of complete media with gentle swirling. Cells are spun down for 5 minutes and the cell pellet is resuspended in complete media. Clumps of cells are broken up by running the cell solution through a 23 gauge syringe needle and a […] cell strainer. One hundred thousand cells per well are added to 384 well polystyrene tissue culture treated flat bottomed plates in a total of 30 μL. Stimulation cocktail containing anti-human CD3 antibody, anti-human CD28 antibody, IL-23 and compounds prepared in complete media are added to the cells simultaneously in a total volume of 30 μL. The final concentration of added stimulants is 160 ng/mL, 500 ng/mL, and 5 ng/mL for anti-CD3 antibody, anti-CD28 antibody, and IL-23 respectively and 0.3% for DMSO. Plates are sealed with AERASEAL® sealing film and incubated for 48 hours at 37° C., 95% humidity, and 5% CO2.
Following the incubation period, the plates are spun at 200×g for five minutes. Supernatants are diluted 1:1 with equal volume 1% BSA/PBS and tested for IL-17 with a human IL-17 ELISA kit from R&D system (catalog #D317E) according to the protocol provided with the kit with one exception—the colorimetric substrate OPD (o-phenylenediamine dihydrochloride, Sigma Cat #P6912) is used instead of the substrate supplied in the kit. Absorbance at 492 nm is measured with the Envision multi-label plate reader. A492 values are converted to concentration of IL-17 based on the IL-17 standard curve as shown below: pg/mL IL-17=EC50*[[(Top-Bottom)/(A492-Bottom)]-1](1/-Hill). IC50's for inhibition of IL-17 secretion is calculated based on converted values using a standard 4-parameter fit with maximum inhibition determined from the average values of wells with no added stimulants nor compounds and minimum inhibition from the average values of wells with stimulants alone and no added compound.

[5] = target: human RAR-related orphan receptor alpha (hRORα) (Homo sapiens (Human), UniProt P35398); assay: RORα receptor-ligand competition binding assay; settings: His-tagged hRORα, [3H]-25-hydroxycholesterol; mean ± standard deviation; read-out: RORa Ki
Experimental: as §1, §2, §3

[6] = target: human RAR-related orphan receptor beta (hRORβ) (Homo sapiens (Human), UniProt Q92753); assay: RORβ receptor-ligand competition binding assay; settings: His-tagged hRORβ; mean ± standard deviation; read-out: RORb Ki
Experimental: as §1, §2, §3

[7] = tested on: GPI induced arthritis in DBA/1 mice; assay: Glucose-6-phosphate isomerase (GPI) induced arthritis model; type: in vivo, mouse; settings: 100 mg/Kg orally once daily
Experimental: The GPI induced arthritis model is adapted from K. Iwanami et al Arthritis Rheumatism 58, 754-763, 2008 and D. Schubert et al. J Immunology 172, 4503-4509, 2004. Mice (8-9 week old male DBA/1 mice) (Harlan) are randomly assigned into treatment groups based on body weights collected on the day of immunization (day 0). On the day of immunization (day 0), a 1:1 (v:v) mixture of recombinant human GPI (diluted to 4 mg/mL in PBS, Gibco) and complete Freund's adjuvant (CFA, Sigma) is mixed on a high speed homogenizer (Omni) for 40 minutes in a cold room. A final concentration of 2 mg/mL GPI is achieved in the emulsion. Mice are injected at the base of the tail (2 sites of injection, subcutaneously, 100 μL each site) with the GPI emulsion. Test compounds are dosed orally starting on the same day as immunization (day 0). Starting on day 0, each paw is scored for severity of joint swelling based on a 0 to 3 scoring system (See K. Iwanami et al Arthritis Rheumatism 58, 754-763, 2008. The clinical score represents the total score of all 4 paws (maximum score=12). Clinical scores are assessed on days 0, 2, 4, 7, 8, 9, 10, 11, 12, 14, 16, 18, and 21.
The AUC is calculated by a trapezoid method for clinical score over time from the day of immunization (day 0) to day 21. Test p-values were derived from Student's t-test.

human RAR-related orphan receptor beta (hRORβ), sequence (Q92753 whole entry): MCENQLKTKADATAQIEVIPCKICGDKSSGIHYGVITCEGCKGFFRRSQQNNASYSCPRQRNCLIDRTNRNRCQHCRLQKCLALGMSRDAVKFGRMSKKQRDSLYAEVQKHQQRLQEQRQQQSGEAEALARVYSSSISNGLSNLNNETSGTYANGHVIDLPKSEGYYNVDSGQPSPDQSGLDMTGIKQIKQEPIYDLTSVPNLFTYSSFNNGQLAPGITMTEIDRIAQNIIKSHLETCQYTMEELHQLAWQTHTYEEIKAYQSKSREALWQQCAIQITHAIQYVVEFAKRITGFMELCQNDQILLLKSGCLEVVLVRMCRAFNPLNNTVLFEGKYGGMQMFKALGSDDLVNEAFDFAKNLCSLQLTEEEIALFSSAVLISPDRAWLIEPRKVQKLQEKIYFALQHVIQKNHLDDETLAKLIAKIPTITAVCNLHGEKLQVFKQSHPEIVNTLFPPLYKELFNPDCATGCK
human RORg ligand binding domain fused to yeast GAL4 DNA binding domain, sequence (P51449 269-508): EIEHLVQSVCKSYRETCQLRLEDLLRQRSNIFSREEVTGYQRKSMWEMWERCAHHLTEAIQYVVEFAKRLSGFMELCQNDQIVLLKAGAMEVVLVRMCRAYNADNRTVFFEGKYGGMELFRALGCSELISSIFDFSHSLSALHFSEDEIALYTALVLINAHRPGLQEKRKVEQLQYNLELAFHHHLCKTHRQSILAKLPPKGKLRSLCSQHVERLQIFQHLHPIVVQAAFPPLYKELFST
human RAR-related orphan receptor alpha (hRORα), sequence (P35398 whole entry): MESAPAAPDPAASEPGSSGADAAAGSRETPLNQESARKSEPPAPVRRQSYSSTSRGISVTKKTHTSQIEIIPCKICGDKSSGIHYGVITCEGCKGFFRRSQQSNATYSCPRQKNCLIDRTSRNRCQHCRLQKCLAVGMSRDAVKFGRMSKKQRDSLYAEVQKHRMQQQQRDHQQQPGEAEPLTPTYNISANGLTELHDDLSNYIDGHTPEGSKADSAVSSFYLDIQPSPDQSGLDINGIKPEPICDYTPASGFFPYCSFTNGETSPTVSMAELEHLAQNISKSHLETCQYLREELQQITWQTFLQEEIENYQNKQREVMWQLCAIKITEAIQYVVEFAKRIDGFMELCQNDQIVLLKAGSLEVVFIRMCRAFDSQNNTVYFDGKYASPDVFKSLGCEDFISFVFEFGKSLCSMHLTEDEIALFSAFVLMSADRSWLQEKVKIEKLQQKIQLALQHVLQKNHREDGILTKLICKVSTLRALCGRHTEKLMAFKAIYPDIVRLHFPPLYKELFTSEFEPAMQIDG
human RAR-related orphan receptor gamma (hRORγ), sequence (P51449 whole entry): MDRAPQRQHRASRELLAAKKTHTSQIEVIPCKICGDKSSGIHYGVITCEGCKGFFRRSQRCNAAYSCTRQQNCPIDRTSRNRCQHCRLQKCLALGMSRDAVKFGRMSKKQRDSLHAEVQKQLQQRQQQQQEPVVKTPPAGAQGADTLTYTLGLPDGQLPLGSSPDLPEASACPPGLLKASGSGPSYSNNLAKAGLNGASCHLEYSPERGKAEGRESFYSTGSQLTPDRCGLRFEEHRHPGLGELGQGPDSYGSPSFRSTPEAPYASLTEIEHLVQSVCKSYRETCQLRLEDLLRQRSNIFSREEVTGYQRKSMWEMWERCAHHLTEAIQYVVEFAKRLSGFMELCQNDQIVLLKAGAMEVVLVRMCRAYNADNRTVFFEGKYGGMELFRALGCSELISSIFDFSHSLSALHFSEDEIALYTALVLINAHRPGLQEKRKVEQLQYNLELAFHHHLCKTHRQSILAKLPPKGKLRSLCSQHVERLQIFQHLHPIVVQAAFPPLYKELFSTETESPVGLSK

SMILES | Ki [1] [µM] | EC50 [2] [µM] | IC50 [3] [µM] | EC50 [4] [µM] | Ki [5] [µM] | Ki [6] [µM] | severity of paw swelling and mean clinical scores compared to the vehicle group [7] | reduction in clinical score AUC ([7]; compared to the vehicle group) [%] | Clinical Score AUC (mean ± SEM) ([7]; day 0 to day 21, male DBA/1 mice)
CCS(=O)(=O)c1ccc(CNC(=O)c2cc3c(s2)C2(CCN(Cc4ccc(-c5ncon5)cc4F)CC2)O[C@@H](C)C3)nc1 [Example 25, (5′S)-N-{[5-(Ethylsulfonyl)pyridin-2-yl]methyl}-1-[2-fluoro-4-(1,2,4-oxadiazol-3-yl)benzyl]-5′-methyl-4′,5′-dihydrospiro[piperidine-4,7′-thieno[2,3-c]pyran]-2′-carboxamide] | 0.00604 ± 0.00119 | > 1 | 0.0162 ± 0.0097 | 0.0308 ± 0.0257 |  |  |  |  | 
CCS(=O)(=O)c1ccc(CNC(=O)c2cc3c(s2)C2(CCN(C(C)c4ccc(C(F)(F)F)nc4)CC2)OC(C)C3)nc1 (single isomer, unassigned; isomer 2) [Example 46, N-{[5-(Ethylsulfonyl)pyridin-2-yl]methyl}-5′-methyl-1-{1-[6-(trifluoromethyl)pyridin-3-yl]ethyl}-4′,5′-dihydrospiro[piperidine-4,7′-thieno[2,3-c]pyran]-2′-carboxamide isomer 2] |  | > 1 |  | 0.0245 ± 0.0119 | > 20.4 |  |  |  | 
CCS(=O)(=O)c1ccc(CNC(=O)c2cc3c(s2)C2(CCN(C(C)c4ccc(C(F)(F)F)nc4)CC2)OC(C)C3)cc1 (single isomer, unassigned; isomer 2) [Example 42, N-[4-(Ethylsulfonyl)benzyl]-5′-methyl-1-{1-[6-(trifluoromethyl)pyridin-3-yl]ethyl}-4′,5′-dihydrospiro[piperidine-4,7′-thieno[2,3-c]pyran]-2′-carboxamide isomer 2] | 0.00442 ± 0.0027 | > 1 | 0.0199 ± 0.0107 | 0.0083 ± 0.0038 | > 20.4 | > 12.5 |  |  | 
CCS(=O)(=O)c1ccc(CNC(=O)c2cc3c(s2)C2(CCN(C(C)c4cnc(C(F)(F)F)nc4C)CC2)O[C@@H](C)C3)nc1 (single isomer, unassigned; isomer 2) [Example 69, (5′S)-N-{[5-(Ethylsulfonyl)pyridin-2-yl]methyl}-5′-methyl-1-{1-[4-methyl-2-(trifluoromethyl)pyrim-idin-5-yl]ethyl}-4′,5′-dihydrospiro[piperidine-4,7′-thieno[2,3-c]pyran]-2′-carboxamide isomer 2] |  | > 1 | 0.0154 ± 0.0134 | 0.03 ± 0.0185 |  |  |  |  | 
CCS(=O)(=O)c1ccc(CNC(=O)c2cc3c(s2)C2(CCN(C(C)c4cnc(C(F)(F)F)s4)CC2)O[C@@H](C)C3)nc1 (single isomer, unassigned; isomer 2) [Example 55, (5′S)-N-{[5-(Ethylsulfonyl)pyridin-2-yl]methyl}-5′-methyl-1-{1-[2-(trifluoromethyl)-1,3-thiazol-5-yl]ethyl}-4′,5′-dihydrospiro[piperidine-4,7′-thieno[2,3-c]pyran]-2′-carboxamide isomer 2] |  | > 1 |  | 0.0126 ± 0.0081 |  | > 12.5 | reduces severity of paw swelling and maintains lower mean clinical scores | 94 | 7.50 ± 2.08
CCS(=O)(=O)c1ccc(CNC(=O)c2cc3c(s2)C2(CCN(C(C)c4cnc(C(F)(F)F)nc4C)CC2)O[C@@H](C)C3)cc1 (single isomer, unassigned; isomer 1) [Example 66, (5′S)-N-[4-(Ethylsulfonyl)benzyl]-5′-methyl-1-{1-[4-methyl-2-(trifluoromethyl)pyrim-idin-5-yl]ethyl}-4′,5′-dihydrospiro[piperidine-4,7′-thieno[2,3-c]pyran]-2′-carboxamide isomer 1] |  | > 1 | 0.0314 ± 0.0112 | 0.0133 ± 0.0047 |  |  |  |  | 
CCS(=O)(=O)c1ccc(CNC(=O)c2cc3c(s2)C2(CCN([C@@H](C)c4ccc(C#N)cc4)CC2)OCC3)cc1 [Example 64, 1-[(1S)-1-(4-Cyanophenyl)ethyl]-N-[4-(ethylsulfonyl)benzyl]-4′,5′-dihydrospiro[piperidine-4,7′-thieno[2,3-c]pyran]-2′-carboxamide] |  | > 3 |  |  |  | > 22.7 |  |  | 
CCS(=O)(=O)c1ccc(CNC(=O)c2cc3c(s2)C2(CCN([C@H](C)c4cnc(C(F)(F)F)nc4)CC2)O[C@@H](C)C3)cc1 [Example 16, (5′S)—N-[4-(Ethylsulfonyl)benzyl]-5′-methyl-1-{(1R)-1-[2-(trifluoromethyl)pyrimidin-5-yl]ethyl}-4′,5′-dihydrospiro[piperidine-4,7′-thieno[2,3-c]pyran]-2′-carboxamide] |  | > 1 |  |  |  | > 12.5 |  |  | 
